Test system: platelets (platelet rich plasma)
Assay: Platelet adhesion assay (SEM imaging)
Assay type: cell-based
From the text: Platelet adhesion experiments were visualized by scanning electron microscope (SEM) imaging (FIG. 7).

Substance: heparin
- platelet aggregation on the material: no aggregation of platelets
